Measurements from patent US8067391B2, “ODCase inhibitors for the treatment of malaria” (University Health Network, priority 2005, dated 2011).
Read-outs that look alike come from different tables or passages of the source.

How the values were obtained:
Plasmodium falciparum = assay: anti-malarial activity against Plasmodium falciparum; type: cell-based; settings: read-out: IC50 anti-malarial activity
Method: (§1) Assays comparing the antiplasmodial activities of the compounds of the invention were performed using the SYBR-Green method.^xlviii Briefly, the compounds were dissolved in DMSO to achieve a concentration of 10 mg/mL. Fifty microliters of RPMI-A were added to each well in a 96-well plate before 40 μL of RPMI-A and 10 μL of compound solution were added to the first well, the contents of the well were mixed, 50 μL were removed and added to the next well in the series and the process was repeated until the next-to-last well was reached. This produced a plate with a series of two-fold dilutions across it, except for the last well in the series, which contained RPMI-A alone. Fifty microliters of parasite culture (2% hematocrit, 2% parasitemia) were added to each well and the plates were then incubated at 37° C. in 95% N2, 3% CO2, and 2% O2 for 72 hrs.

Plasmodium vivax = assay: anti-malarial activity against Plasmodium vivax; type: cell-based; settings: range stated for the group of compounds
P. falciparum ItG = assay: antiplasmodial activity, SYBR-Green method, P. falciparum ItG isolate; type: cell-based; settings: Plasmodium falciparum, in vitro, FIG. 4, read-out: IC50 anti-plasmodial activity
Method: as §1
(§2) CHO cells (ATCC, Manassas, Va.) were grown in RPMI-1640 supplemented with 10% fetal calf serum (Sigma, St. Louis, Mo.), 25 mM HEPES and gentimicin (RPMI-10). Cells were seeded in 96 well plates and grown to 50% confluency in 100 μL of RPMI-10 per well prior to the addition of either DMSO alone, or a test compound dissolved in DMSO to a concentration of 10 mg/mL. […]

[1] = toxicity to Vero cell line; type: cell-based; settings: African green monkey, Vero cells
P. burghei [2] = assay: sensitivity of P. burghei strain compared with P. falciparum; settings: P. burghei strain vs P. falciparum
Method: (§3) Efficacy studies in mice were performed using Ii to test the in vivo potential of this compound. Mice were infected with P. burghei, a mouse strain similar to the human malaria parasite P. falciparum. P. burghei strain is approximately 20 times less sensitive to Ii, so the dose in mice had to be adjusted accordingly. Parasitemia was monitored in mice after the drug was given at two different doses: 0.6 mg/mouse (n=3) and 6 mg/mouse (n=3). There was a control group of mice without any treatment with Ii.

[3] = tested on: human primary blood cells (PBLs); assay: human primary blood cell assay (H-3 incorporation, Con A stimulated); type: cell-based
Method: The following procedure was used to conduct human primary blood cell assays. Added 3 ml of PBS (OCI media facility) to 3 ml of serum depleted blood from normal, adult, human controls. Pipetted 6 ml Ficoll-Paque Plus (Amersham 17-1440-03) into a 15 ml centrifuge tube. Overlaid with PBS diluted blood. Centrifuged at 2500 rpm for 10 minutes at room temperature, no brake.
Removed and discarded upper (PBS) phase. Transferred cells at the PBS/Ficoll interface to a clean 15 ml centrifuge tube. Added 10 mL PBS. Then, centrifuged at 1250 rpm for 10 minutes at room temperature.
Discarded the supernatant and resuspended the cell pellet in Iscove's Modified Dulbecco's Medium (Gibco 12440 prepared by OCI Media facility) supplemented with 5.5×10^-5M 2ME (Fisher 03446-100) and 5% FBS (Hyclone SH-30397-03 Lot # KPG21604). Plated cells at 50,000 cells per well in 96 well flat bottom plates (Costar 3595). Added Concanavalin A (Pharmacia 17-0450-01) to a final concentration of 1.5 micro gm/ml. All conditions were set in triplicate.
Included untreated (Con A alone) controls. Cultured cells for 48 hours or 72 hours at 37° C. with 5% CO2 and 90% relative humidity. Added 0.5 uCi H-3 (Perkin Elmer NET027A) per well in 10 microL for the last 8 hours of the culture period. […]
Dried plates for 1 hour at 37° C. […] Data was collected by reading the radioactivity counts.

[4] = CHO cell toxicity assay (MTT); type: cell-based; settings: Chinese hamster, CHO cells; CHO cell line
Method: CHO cells (ATCC, Manassas, Va.) were grown in RPMI-1640 supplemented with 10% fetal calf serum (Sigma, St. Louis, Mo.), 25 mM HEPES and gentimicin (RPMI-10). Cells were seeded in 96 well plates and grown to 50% confluency in 100 μL of RPMI-10 per well prior to the addition of either DMSO alone, or a test compound dissolved in DMSO to a concentration of 10 mg/mL. Compound gradients were prepared by adding 90 μL of RPMI-10 mixed with 10 μL of compound solution to the first well in the series, mixing, transferring 100 μL to next well and repeating until the next-to-last well was reached. After 48 hrs, the viability of the cells was determined by discarding the media in the wells and adding 100 μL of 10 mg/mL of 3-[4,5-dimethylthiazol-2-yl]-2,5-diphenyltetrazolium bromide (MTT, Sigma, St. Louis, Mo.) in RPMI-10, incubating the plates for an additional hour, and then removing the media and adding 100 μL of DMSO and reading the absorbance at 650 nm.^xlix The IC50 values of individual compounds were determined applying a non-linear regression analysis of the dose-response curve using the computer program SigmaPlot (Jandel Scientific).

P. burghei [5] = assay: mouse efficacy study against plasmodia; type: in vivo, mice
Text: P. chabaudi chabaudi (Pcc) AS infection: They are two different species of mouse malaria that are used commonly in mice efficacy studies: P. chabaudi chabaudi AS and P. burghei. Pcc strain induces larger load of parasites and even some mouse strains die. If P. burghei strain is given to the mouse, they develop fewer parasites but become very sick. Pcc strain provides an opportunity in mice to observe if parasite numbers are reduced in the context of a reasonably healthy animal. Thus, Pcc strain was used in the efficacy model.
Blood-stage PCCAS was maintained in as described (Podoba J E and Stevenson, 1991)[2]. Infections in experimental animals were initiated by intraperitoneal injection of 1×10^6 P. chabaudi chabaudi AS-infected erythrocytes (PCCAS). Course of infection was monitored daily for 18 days by determining parasitemia on thin-blood smears stained with Diff Quik (American Scientific Products, Mississauga, ON). Compounds to be assayed were made up in RPMI 1640 at the concentration required to deliver the target dose in a total volume of 0.5 mL and were then filter sterilized. Compounds were stored at 4° C. prior to use. After infection the presence of parasites in the peripheral circulation was monitored daily until parasites were first observed. The mice were then injected daily for three consecutive days with either RPMI 1640 alone or compound dissolved in RPMI. The health of the animals was assessed daily and the parasitemia determined by examining blood films.
as §3

[6] = toxicity to human fibroblast (HFF) cell line; type: cell-based; settings: human fibroblast (HFF) cells
P. falciparum 3D7 = assay: antiplasmodial activity, SYBR-Green method, P. falciparum 3D7 isolate; type: cell-based; settings: Plasmodium falciparum, in vitro, FIG. 4, read-out: IC50 anti-plasmodial activity
Method: as §1, §2

ODCase = ODCase inhibition (isothermal titration calorimetry enzymology); type: biochemical
Method: (a) Enzymology. ODCase from M. thermoautotrophicum (Mt) and compound Id were incubated at room temperature in the reaction buffer (50 mM Tris, 20 mM DTT, 40 mM NaCl, pH 7.5). The concentrations of the Id were 1×, 2.5×, 3.5× and 5× of the enzyme concentration, corresponding to 50, 125, 175 and 250 μM, respectively. The remaining enzyme activity in the enzyme-inhibitor reaction mixture was measured after 30 min, 2, 4, 8, 12, 24, 48 and 96 hours after the onset of incubation. Aliquots (1 μL) were removed from the reaction mixture and diluted to 2.5 mL with the assay buffer (50 mM Tris, 1 mM DTT, pH 7.5). […]
The inhibition of ODCase from P. falciparum (Pf) was assayed in a similar manner. […] The remaining activity of ODCase was measured at 37° C. for up to 48 hrs. […]
The Pf ODCase concentration in each of the samples (15, 30, and 45 min incubation times) was 60 nM. […] The remaining enzyme activities in these samples were measured by injecting 3 μL of 2.85 mM OMP. The enzyme activity at t=0 was measured by injecting OMP and 6-iodo-UMP simultaneously into the 60 nM enzyme solution in the ITC sample chamber. […] The control sample with 60 nM enzyme was incubated for 15-45 minutes at 37° C., and the enzyme activity was measured after the addition of 3 μL of 2.85 mM OMP. […]
Half-time of inactivation t1/2 was calculated from: t1/2=0.693/kinact (3)

[7] = range stated for the group of compounds

Row | SMILES | IC50 (Plasmodium falciparum; [7]) [µM] | IC50 (Plasmodium vivax) [µM] | further results
1 | Nc1cc(=O)[nH]c(=O)n1[C@@H]1O[C@H](CO)[C@@H](O)[C@H]1O [Compound Ic, 6-Amino uridine] | 20 to 2000 | 20 to 2000 | 
2 | COC(=O)c1cc(=O)[nH]c(=O)n1[C@@H]1O[C@H](CO)[C@@H](O)[C@H]1O [Compound It, 6-Methoxycarbonyl uridine] | 20 to 2000 | 20 to 2000 | 
3 | N#Cc1cc(=O)[nH]c(=O)n1[C@@H]1O[C@H](CO)[C@@H](O)[C@H]1O [Ia, 6-Cyanouridine] | 20 to 2000 | 20 to 2000 | 
4 | N#Cc1cc(=O)[nH]c(=O)n1[C@@H]1O[C@H](COP(=O)(O)O)[C@@H](O)[C@H]1O [Ib, 6-Cyanouridine-5′-monophosphate] |  | 20 to 2000 | IC50 (Plasmodium falciparum): 20 to 2000 µM
5 | [N-]=[N+]=Nc1cc(=O)[nH]c(=O)n1[C@@H]1O[C@H](CO)[C@@H](O)[C@H]1O [Id, 6-Azido uridine] | 20 to 2000 | 20 to 2000 | 
6 | Nc1cc(=O)[nH]c(=O)n1[C@@H]1O[C@H](COP(=O)(O)O)[C@@H](O)[C@H]1O [Ie, 6-Amino uridine-5′-O-monophosphate] | 20 to 2000 | 20 to 2000 | 
7 | [N-]=[N+]=Nc1cc(=O)[nH]c(=O)n1[C@@H]1O[C@H](COP(=O)(O)O)[C@@H](O)[C@H]1O [If, 6-Azido uridine-5′-O-monophosphate] | 20 to 2000 | 20 to 2000 | 
8 | O=c1cc(I)n([C@@H]2O[C@H](CO)[C@@H](O)[C@H]2O)c(=O)[nH]1 [Ii, 6-Iodo-uridine] |  |  | IC50 (P. falciparum ItG): 4.4 ± 1.3 µM; CC50 [1]: > 300 µM; times less sensitive than P. falciparum (P. burghei [2]): approximately 20 times; toxicity not observed up to [3]: > 200 mM; IC50 at 48 h [4]: 366 ± 45 µM; parasitemia in mice (P. burghei [5]; mice infected with P. burghei, 0.6 and 6 mg/mouse, vs untreated controls, dose-dependent, FIG. 5): decreased parasitemia; survival rate (P. burghei [5]; mice infected with P. burghei, treated vs controls, FIG. 6): longer survival time; survival, multiple dosing, higher doses (P. burghei [5]; mouse efficacy study with multiple dosing, vs no drug, FIG. 7): increased survival; IC50 [6]: > 300 µM; IC50 (P. falciparum 3D7): 6.2 ± 0.7 µM; type of ODCase inhibition (ODCase): covalent inhibitor
9 | O=c1cc(I)n([C@@H]2O[C@H](COP(=O)(O)O)[C@@H](O)[C@H]2O)c(=O)[nH]1 [Ij, 6-Iodo uridine-5′-O-monophosphate] | 20 to 2000 | 20 to 2000 | 
10 | Nc1c(F)c(=O)[nH]c(=O)n1[C@@H]1O[C@H](CO)[C@@H](O)[C@H]1O [In, 5-Fluoro-6-amino uridine] | 20 to 2000 | 20 to 2000 | 
11 | [N-]=[N+]=Nc1c(F)c(=O)[nH]c(=O)n1[C@@H]1O[C@H](CO)[C@@H](O)[C@H]1O [Io, 5-fluoro-6-azido uridine] | 20 to 2000 | 20 to 2000 | 
12 | O=c1[nH]c(=O)n([C@@H]2O[C@H](CO)[C@@H](O)[C@H]2O)c(I)c1F [Ip, 5-fluoro-6-iodo uridine] | 20 to 2000 | 20 to 2000 | 
